From PMC5454392, “Selective BET bromodomain inhibition as an antifungal therapeutic strategy” (Nature Communications, 2017)
Entries after “also recorded” stand apart in the source; their conditions may differ.

Columns and labels:
[1] = molecular target: T1, CaBdf1 BD1 (Candida albicans, UniProt Q5A4W8); test: Isothermal titration calorimetry (ITC); format: binding; conditions: ITC, 25 °C
T1 construct: made in house; host or cells: E. coli BL21(DE3)
Protocol: (§1) Proteins used for crystallization and for ITC. […] Cells were resuspended in buffer A (50 mM Tris-HCl pH 7.5, 300 mM NaCl, 10% glycerol, 25 mM imidazole, 5 mM β-mercaptoethanol and protease inhibitors) and lysed by sonication. The cleared lysate was incubated with Ni-NTA resin (Qiagen) and washed with buffer A containing 0.5 M NaCl. Proteins were eluted with 250 mM imidazole, dialysed overnight in the presence of His-tagged TEV protease against buffer A containing no imidazole and incubated with Ni-NTA resin to remove His-tagged species. Proteins were further purified on a Superdex 75 10/300 (GE Healthcare) column in 50 mM Hepes pH 7.5, 150 mM NaCl, 0.5 mM dithiothreitol (DTT). Proteins were concentrated to >20 mg ml^−1 on a Centricon device (Millipore) and used for ITC, TSA and crystallization experiments. […] Expression and purification were performed as above, except that buffer A was replaced by buffer B (50 mM Hepes pH 7.5, 500 mM NaCl, 5% glycerol, 5 mM imidazole and protease inhibitors) and gel filtration was performed in 10 mM Hepes pH 7.5, 500 mM NaCl and 5% glycerol.
(§2) Calorimetric experiments were performed on a NanoITC calorimeter (TA Instruments) at 25 °C while stirring at 250 r.p.m. All proteins were buffer exchanged by gel filtration into 50 mM Hepes pH 7.5, 150 mM NaCl, 0.5 mM DTT, except for SMARCA2 and SMARCA4A BDs, which were exchanged into 10 mM Hepes pH 7.5, 500 mM NaCl and 5% glycerol. […] Titrations consisted of an initial injection of 1.5 μl followed by 19 identical injections of 2.5 μl made at time intervals of 5 min. ITC data were corrected for the heat of dilution of injectant into buffer and analysed with software provided by the manufacturer using a single binding site model. The first data point was excluded from the analysis. Thermodynamic parameters determined from the ITC data are summarized in Supplementary Table 1.

[2] = molecular target: T2, SMARCA2 BD (Homo sapiens, UniProt P51531); test: Isothermal titration calorimetry (ITC); format: binding
T2 construct: Human SMARCA2 and SMARCA4 BD plasmids bearing an N-terminal His tag and TEV protease site; His tag with TEV site (N, cleaved yes); 73250; host or cells: E. coli BL21(DE3)
Protocol: as §1, §2

[3] = molecular target: T3, SMARCA4 BD (Homo sapiens, UniProt P51532); test: Isothermal titration calorimetry (ITC); format: binding
T3 construct: Human SMARCA2 and SMARCA4 BD plasmids bearing an N-terminal His tag and TEV protease site; His tag with TEV site (N, cleaved yes); 74664; host or cells: E. coli BL21(DE3)
Protocol: as §1, §2

[4] = tested on: 32 representative human (BET and non-BET) BDs; test: BROMOscan profiling (DiscoverX); format: binding; conditions: 10 μM; 35% of control used as cutoff for significant inhibition
Protocol: (§3) BROMOscan profiling was performed by DiscoverX (Fremont, CA, USA). […] Ligand-loading densities were optimized as described.

[5] = molecular target: T2, SMARCA2 BD; test: BROMOscan profiling (DiscoverX); format: binding; conditions: as read by reviewer from the BROMOscan data
Protocol: as §3

[6] = tested on: C. albicans; test: C. albicans growth assay in liquid media; format: cell-based; conditions: liquid media, WT allele repressed
Protocol: Growth on liquid media. C. albicans strains were grown at 30 °C in SC medium to an OD600 of 0.5–0.8. For the evaluation of growth defects related to Bdf1 mutations, log-phase growing cells were counted using a Neubauer chamber and diluted in liquid media to a final concentration of 5,400 cells per ml per well in a sterile 96-well plate. Dox (50 μg ml^−1) or methionine (5 mM)/cysteine (0.25 mM) were added to the media if required. Plates were incubated at 30 °C and OD600 was measured using a Multiskan FC Microplate Photometer (Thermo Fisher). For the evaluation of chemical compounds, strains were grown in SC medium supplemented with 50 μg ml^−1 Dox or 5 mM methionine/0.25 mM cysteine 24 h before counting and then seeded in 96-well plates at the same concentration as mentioned above, with or without chemical compounds. Statistical tests were performed using two-sided Welch t-tests.

[7] = molecular target: T1, CaBdf1 BD1; format: binding; conditions: CaBdf1 BD1 WT; for Peptide array signal, raw data, Left: left replicate array; for Peptide array signal, raw data, Rigt: right replicate array
Protocol: (§4) In short, arrays were blocked and incubated with 1 μM of purified CaBdf1 BD1 or BD2. Arrays were incubated with recombinant BDs for 2 h at 4 °C in binding buffer (Tris-HCl 50 mM pH 7.4, NP-40 0.1%, NaCl 150 mM, glycerol 10%). […] Assays were performed in duplicate.

[8] = molecular target: T4, CaBdf1 BD1 Y248F (Candida albicans, UniProt Q5A4W8, Y248F); test: Histone peptide microarray binding, YF mutant; parameters: species or system C. albicans; conditions: CaBdf1 BD1 YF mutant; for Peptide array signal, raw data, Left: left replicate array; for Peptide array signal, raw data, Right: right replicate array
T4 construct: made in house; host or cells: E. coli BL21(DE3), inferred from the wild-type GST construct
Protocol: as §4, with “duplicate. Images were acquired on a Bio-Rad ChemiDoc XRS Imaging machine and data were quantified using the array analyser software provided by Active Motif.” for “duplicate.”

[9] = molecular target: T5, CaBdf1 BD2 Y425F (Candida albicans, UniProt Q5A4W8, Y425F); test: Histone peptide microarray binding, YF mutant; parameters: species or system C. albicans; conditions: CaBdf1 BD2 YF mutant; for Peptide array signal, raw data, Left: left replicate array; for Peptide array signal, raw data, Right: right replicate array
T5 construct: made in house; host or cells: E. coli BL21(DE3), inferred from the wild-type GST construct
Protocol: as §4, with “duplicate. Images were acquired on a Bio-Rad ChemiDoc XRS Imaging machine and data were quantified using the array analyser software provided by Active Motif.” for “duplicate.”

[10] = molecular target: T6, CaBdf1 BD2 (Candida albicans, UniProt Q5A4W8); test: HTRF assay, inhibition of BD binding to H4ac4 peptide; parameters: made in house; host or cells: E. coli BL21(DE3)
Target sequence in this assay (Q5A4W8 361-501): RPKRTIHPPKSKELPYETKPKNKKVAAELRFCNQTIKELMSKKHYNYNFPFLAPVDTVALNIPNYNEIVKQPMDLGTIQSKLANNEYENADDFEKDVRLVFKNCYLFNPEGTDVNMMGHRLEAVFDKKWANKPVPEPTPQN

[11] = molecular target: T6, CaBdf1 BD2; format: binding; parameters: made in house; host or cells: E. coli BL21(DE3); conditions: CaBdf1 BD2 WT; for Peptide array signal, raw data, Left: left replicate array; for Peptide array signal, raw data, Rigt: right replicate array
Protocol: as §4
Target sequence in this assay (Q5A4W8 361-501): as above

[12] = molecular target: T6, CaBdf1 BD2; test: Isothermal titration calorimetry (ITC); format: binding; parameters: His tag with TEV site (N, cleaved yes); made in house; host or cells: E. coli BL21(DE3)
Protocol: as §1, §2
Target sequence in this assay (Q5A4W8 386-491): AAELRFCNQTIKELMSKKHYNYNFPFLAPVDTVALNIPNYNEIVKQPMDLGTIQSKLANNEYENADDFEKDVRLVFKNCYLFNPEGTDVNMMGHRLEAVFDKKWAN

[13] = molecular target: T7, human Brd4 BD1 (Homo sapiens, UniProt O60885); test: BROMOscan profiling (DiscoverX); format: binding; parameters: purchased DiscoverX; host or cells: T7 phage grown in an E. coli host derived from BL21; conditions: 10 μM; as read by reviewer from the BROMOscan data
Protocol: as §3

[14] = molecular target: T7, human Brd4 BD1; test: HTRF assay, inhibition of BD binding to H4ac4 peptide; parameters: human Brd4 BD1 (residues 22–204); His tag with TEV site (N, cleaved yes); made in house; host or cells: E. coli BL21(DE3); conditions: HTRF
[15] = molecular target: T7, human Brd4 BD1; test: Isothermal titration calorimetry (ITC); format: binding; parameters: human Brd4 BD1 (residues 22–204); His tag with TEV site (N, cleaved yes); made in house; host or cells: E. coli BL21(DE3); conditions: ITC
Protocol: as §1, §2

[16] = molecular target: T1, CaBdf1 BD1; test: HTRF assay, inhibition of BD binding to H4ac4 peptide; parameters: species or system C. albicans; conditions: HTRF, H4ac4 peptide; read-out: IC50
[17] = molecular target: T8, human Brd4 BD2 (Homo sapiens, UniProt O60885); test: as above
T8 construct: GST-tagged human Brd4 BD2 (residues 349–460) was purchased from Reaction Biology Corp; purchased Reaction Biology Corp

T4 sequence (Q5A4W8 193-327 Y248F): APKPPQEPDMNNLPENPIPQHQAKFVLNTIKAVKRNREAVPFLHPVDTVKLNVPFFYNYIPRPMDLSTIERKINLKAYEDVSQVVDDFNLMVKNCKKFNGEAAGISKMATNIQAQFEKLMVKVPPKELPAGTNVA
T2 sequence (P51531 1378-1506 limits assumed): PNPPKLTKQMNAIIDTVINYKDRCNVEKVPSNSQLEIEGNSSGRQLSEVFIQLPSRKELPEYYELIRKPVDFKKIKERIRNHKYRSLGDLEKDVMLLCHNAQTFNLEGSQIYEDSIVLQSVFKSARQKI
T3 sequence (P51532 1453-1564 limits assumed): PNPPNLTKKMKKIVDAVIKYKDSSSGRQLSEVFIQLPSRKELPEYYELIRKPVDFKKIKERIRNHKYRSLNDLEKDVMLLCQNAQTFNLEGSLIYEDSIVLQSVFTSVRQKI
T1 sequence (Q5A4W8 193-327): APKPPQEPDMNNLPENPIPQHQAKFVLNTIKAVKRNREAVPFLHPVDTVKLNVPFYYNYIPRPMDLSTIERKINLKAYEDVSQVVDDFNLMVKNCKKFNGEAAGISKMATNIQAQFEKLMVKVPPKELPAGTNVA
T5 sequence (Q5A4W8 361-501 Y425F): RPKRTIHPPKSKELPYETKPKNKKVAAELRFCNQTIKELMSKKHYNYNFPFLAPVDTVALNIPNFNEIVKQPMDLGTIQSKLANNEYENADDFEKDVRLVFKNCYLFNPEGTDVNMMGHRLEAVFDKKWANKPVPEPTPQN

O=C1c2ccccc2Sc2cc(-c3noc(-c4cnccn4)n3)ccc2N1C1CC1 [Compound 1]
N (stoichiometry) [1]: 0.91 ± 0.06
TΔS [1]: 20.44 kJ/mol
ΔH [1]: -9.8 ± 2.6 kJ/mol
binding to SMARCA2 BD (in words) [2]: no detectable binding; also recorded: did not detectably bind
binding to SMARCA4 BD (in words) [3]: no detectable binding; also recorded: did not detectably bind
activity against human BDs in BROMOscan (in words) [4]: no significant inhibition was detected; also recorded: no significant activity; also recorded: do not significantly inhibit
inhibition at 10 µM [5]: ~65%
antifungal activity against mutant strains in which either BD1 or BD2 was inactivated (in words) [6]: little antifungal activity; also recorded: did not significantly inhibit growth
Peptide array signal, Normalized (0 to 100%), Average [7]: 0%
Peptide array signal, raw data, Left [7]: 0
Peptide array signal, raw data, Rigt [7]: 0.003741
Peptide array signal, raw data, Left [8]: 0
Peptide array signal, raw data, Right [8]: 0.001715
Peptide array signal, raw data, Left [9]: 0
Peptide array signal, raw data, Right [9]: 0.001456
inhibition of CaBdf1 BD2 (in words) ([10]; HTRF): no or only modest binding and inhibition
Peptide array signal, Normalized (0 to 100%), Average [11]: 0.259%
Peptide array signal, raw data, Left [11]: 0.004804
Peptide array signal, raw data, Rigt [11]: 0.01167
binding to CaBdf1 BD2 (in words) ([12]; ITC): no or only modest binding and inhibition
inhibition in BROMOscan (in words) [13]: hardly inhibits
IC50 ([14]; H4ac4 peptide): ~40 µM
inhibition of Brd4 BD1 (in words) ([14]; highest concentration 20 μM): no or only modest binding and inhibition
binding to Brd4 BD1 (in words) [15]: no or only modest binding and inhibition

Cc1ccc(Nc2c(-c3ccc(O)cc3)nc3c(C)cccn23)cc1 [Compound 2]
IC50 [16]: ≥ 40 µM
IC50 [17]: ≥ 40 µM
binding to SMARCA2 BD (in words) [2]: no detectable binding; also recorded: no significant inhibition
binding to SMARCA4 BD (in words) [3]: no detectable binding; also recorded: no significant inhibition
activity against human BDs in BROMOscan (in words) [4]: no significant inhibition was detected; also recorded: do not significantly inhibit
antifungal activity against mutant strains in which either BD1 or BD2 was inactivated (in words) [6]: little antifungal activity
Peptide array signal, Normalized (0 to 100%), Average [7]: 0.0725%
Peptide array signal, raw data, Left [7]: 0.0005345
Peptide array signal, raw data, Rigt [7]: 0.004276
Peptide array signal, raw data, Left [8]: 0.003429
Peptide array signal, raw data, Right [8]: 0.002743
Peptide array signal, raw data, Left [9]: 0.0004854
Peptide array signal, raw data, Right [9]: 0.002427
IC50 [10]: 1100 nM
Peptide array signal, Normalized (0 to 100%), Average [11]: 0.37%
Peptide array signal, raw data, Left [11]: 0.005491
Peptide array signal, raw data, Rigt [11]: 0.01304
Kd [12]: 2100 nM
N (stoichiometry) ([12]; ITC, 25 °C): 1.21 ± 0.11
TΔS ([12]; ITC, 25 °C): 8.39 kJ/mol
ΔG ([12]; ITC, 25 °C): -32.39 kJ/mol
ΔH ([12]; ITC, 25 °C): -24 ± 4 kJ/mol
